Reference: patent US12052991B2, “Substituted pyridinyloxybenzenes and salts thereof and use thereof as herbicidal agents” (Bayer Aktiengesellschaft, priority 2018, dated 2024)

How the values were obtained:
Assay type in all cases: in vivo
Stellaria media (STEME) [1] = assay: Herbicidal pre-emergence action, test C (Table C8); conditions: visual scoring after about 3 weeks, 100% = plants have died, 0% = like control plants
Text: (§1) Seeds of mono- and dicotyledonous weed plants were placed in plastic pots in sandy loam soil (doubly sown with one species each of mono- or dicotyledonous weed plants per pot) and covered with soil. The compounds of the invention, formulated in the form of wettable powders (WP) or as emulsion concentrates (EC), were then applied onto the surface of the covering soil as aqueous suspension or emulsion with addition of 0.5% additive at a water application rate of 600 liters per hectare (converted). After the treatment, the pots were placed in a greenhouse and kept under good growth conditions for the test plants. After about 3 weeks, the effect of the preparations was scored visually in comparison with untreated controls as percentages. For example, 100% activity=the plants have died, 0% activity=like control plants. Tables C1 to C12 below show the effects of selected compounds of the general formula (I) according to Table 1 on various harmful plants and an application rate corresponding to 1280 or 320 g/ha, which were obtained by the experimental procedure mentioned above.

[2] = test system: Amaranthus retroflexus (AMARE); assay: Herbicidal post-emergence action (Table B6); conditions: visual rating about 3 weeks after treatment, 100% = plants have died, 0% = like control plants
Procedure: (§2) Seeds of mono- and dicotyledonous weed plants were placed in plastic pots in sandy loam soil (doubly sown with in each case one species of mono- or dicotyledonous weed plants per pot), covered with soil and cultivated in a greenhouse under controlled growth conditions. 2 to 3 weeks after sowing, the test plants were treated at the one-leaf stage. The compounds of the invention, formulated in the form of wettable powders (WP) or as emulsion concentrates (EC), were applied onto the green parts of the plants as aqueous suspension or emulsion with addition of 0.5% additive at a water application rate of 600 liters per hectare (converted). After the test plants had been kept in the greenhouse under optimum growth conditions for about 3 weeks, the activity of the preparations was rated visually in comparison to untreated controls. For example, 100% activity=the plants have died, 0% activity=like control plants. Tables B1 to B12 below show the effects of selected compounds of the general formula (I) according to Table 1 on various harmful plants and an application rate corresponding to 1280 or 320 g/ha, which were obtained by the experimental procedure mentioned above.

[3] = test system: harmful plants ABUTH, AMARE, ECHCG, LOLRI, MATIN, POAAN, SETVI, STEME, ALOMY, DIGSA, KCHSC and VERPE; assay: Herbicidal post-emergence action, summary of Tables B1-B12; conditions: application rate of 1280 or 320 g of active ingredient per hectare; summary in words
Procedure: as §2, with “controls.” for “controls. For example, 100% activity=the plants have died, 0% activity=like control plants. Tables B1 to B12 below show the effects of selected compounds of the general formula (I) according to Table 1 on various harmful plants and an application rate corresponding to 1280 or 320 g/ha, which were obtained by the experimental procedure mentioned above.”
(§3) For example, 100% activity=the plants have died, 0% activity=like control plants.
Tables B1 to B12 below show the effects of selected compounds of the general formula (I) according to Table 1 on various harmful plants and an application rate corresponding to 1280 or 320 g/ha, which were obtained by the experimental procedure mentioned above.
As the results of Tables B1-B12 show, compounds no.

[4] = test system: Alopecurus myosuroides (ALOMY); assay: Herbicidal pre-emergence action, test C (Table C9); conditions: dosage 1280 g/ha; visual scoring after about 3 weeks; 100% = plants have died, 0% = like control plants
Text: as §1

Stellaria media (STEME) [5] = assay: Herbicidal post-emergence action (Table B8); conditions: visual rating about 3 weeks after treatment, 100% = plants have died, 0% = like control plants
Procedure: as §2

Poa annua (POAAN) [6] = assay: Herbicidal pre-emergence action, test C (Table C3); conditions: dosage 1280 g/ha; visual scoring after about 3 weeks; 100% = plants have died, 0% = like control plants
Text: as §1

[7] = test system: Amaranthus retroflexus (AMARE); assay: Herbicidal pre-emergence action, test C (Table C6); conditions: visual scoring after about 3 weeks, 100% = plants have died, 0% = like control plants
Text: as §1

[8] = test system: Abutilon theophrasti (ABUTH); assay: Herbicidal pre-emergence action, test C (Table C5); conditions: visual scoring after about 3 weeks, 100% = plants have died, 0% = like control plants
Text: as §1

[9] = test system: harmful plants ABUTH, AMARE, ECHCG, LOLRI, MATIN, POAAN, SETVI, STEME, ALOMY, DIGSA, KCHSC and VERPE; assay: Herbicidal pre-emergence action (test C), summary of Tables C1-C12; conditions: application rate of 1280 or 320 g of active ingredient per hectare; summary in words
Text: as §1, with “percentages.” for “percentages. For example, 100% activity=the plants have died, 0% activity=like control plants. Tables C1 to C12 below show the effects of selected compounds of the general formula (I) according to Table 1 on various harmful plants and an application rate corresponding to 1280 or 320 g/ha, which were obtained by the experimental procedure mentioned above.”
as §3
Tables C1 to C12 below show the effects of selected compounds of the general formula (I) according to Table 1 on various harmful plants and an application rate corresponding to 1280 or 320 g/ha, which were obtained by the experimental procedure mentioned above.
As the results of Tables C1-C12 show, compounds no.

[10] = test system: Matricaria inodora (MATIN); assay: Herbicidal pre-emergence action, test C (Table C7); conditions: dosage 1280 g/ha; visual scoring after about 3 weeks; 100% = plants have died, 0% = like control plants
Text: as §1

Poa annua (POAAN) [11] = assay: Herbicidal post-emergence action (Table B3); conditions: rated visually after about 3 weeks, 100% = plants have died, 0% = like control plants
Procedure: as §2

[12] = test system: Abutilon theophrasti (ABUTH); assay: Herbicidal post-emergence action (Table B5); conditions: rated visually after about 3 weeks, 100% = plants have died, 0% = like control plants
Procedure: as §2

Veronica persica (VERPE) [13] = assay: Herbicidal pre-emergence action, test C (Table C12); conditions: dosage 1280 g/ha, visual scoring vs untreated controls
Text: as §1

Veronica persica (VERPE) [14] = assay: Herbicidal post-emergence action (Table B12); conditions: visual rating about 3 weeks after treatment, 100% = plants have died, 0% = like control plants
Procedure: as §2

[15] = test system: Digitaria sanguinalis (DIGSA); assay: Herbicidal pre-emergence action, test C (Table C10); conditions: dosage 1280 g/ha; visual scoring after about 3 weeks; 100% = plants have died, 0% = like control plants
Text: as §1

Setaria viridis (SETVI) = assay: Herbicidal pre-emergence action, test C (Table C4); conditions: visual scoring after about 3 weeks, 100% = plants have died, 0% = like control plants
Text: as §1

[16] = test system: Digitaria sanguinalis (DIGSA); assay: Herbicidal post-emergence action (Table B10); conditions: dosage 1280 g/ha; visual rating about 3 weeks after treatment; 100% = plants have died, 0% = like control plants
Procedure: as §2

[17] = test system: Alopecurus myosuroides (ALOMY); assay: Herbicidal post-emergence action (Table B9); conditions: rated visually after about 3 weeks, 100% = plants have died, 0% = like control plants
Procedure: as §2

Bassia scoparia (KCHSC) = assay: Herbicidal post-emergence action (Table B11); conditions: dosage 1280 g/ha; visual rating about 3 weeks after treatment; 100% = plants have died, 0% = like control plants
Procedure: as §2

SMILES	Pre-emergence action against Stellaria media (STEME) (Stellaria media (STEME) [1]; dosage 1280 g/ha)	Post-emergence action against Amaranthus retroflexus (AMARE) ([2]; dosage 1280 g/ha)	herbicidal activity against the harmful plants of Tables B1-B12 in post-emergence treatment [3]	Post-emergence action against Stellaria media (STEME) (Stellaria media (STEME) [5]; dosage 1280 g/ha)	Pre-emergence action against Poa annua (POAAN) (Poa annua (POAAN) [6])	Pre-emergence action against Amaranthus retroflexus (AMARE) ([7]; dosage 1280 g/ha)	Pre-emergence action against Abutilon theophrasti (ABUTH) ([8]; dosage 1280 g/ha)	herbicidal activity against the harmful plants of Tables C1-C12 in pre-emergence treatment [9]	Pre-emergence action against Matricaria inodora (MATIN) [10]	Post-emergence action against Poa annua (POAAN) (Poa annua (POAAN) [11]; 1280 g/ha)	Post-emergence action against Abutilon theophrasti (ABUTH) ([12]; 1280 g/ha)	Pre-emergence action against Veronica persica (VERPE) (Veronica persica (VERPE) [13])	Post-emergence action against Veronica persica (VERPE) (Veronica persica (VERPE) [14]; dosage 320 g/ha)	Post-emergence action against Veronica persica (VERPE) (Veronica persica (VERPE) [14]; dosage 1280 g/ha)	Pre-emergence action against Digitaria sanguinalis (DIGSA) [15]	Pre-emergence action against Stellaria media (STEME) (Stellaria media (STEME) [1]; dosage 320 g/ha)	Pre-emergence action against Setaria viridis (SETVI) (Setaria viridis (SETVI); dosage 1280 g/ha)	Post-emergence action against Digitaria sanguinalis (DIGSA) [16]	Post-emergence action against Alopecurus myosuroides (ALOMY) ([17]; 1280 g/ha)	Post-emergence action against Stellaria media (STEME) (Stellaria media (STEME) [5]; dosage 320 g/ha)	further results
Cc1ccnc(-c2ccccc2Oc2ccc(Cl)cn2)c1 [Example 1-81]	100%	100%	very good herbicidal activity	100%	100%	100%	100%	very good herbicidal activity	90%	90%	90%	100%	100%	100%	100%						Pre-emergence action against Alopecurus myosuroides (ALOMY) [4]: 90%; Pre-emergence action against Abutilon theophrasti (ABUTH) ([8]; dosage 320 g/ha): 100%
Cc1ccc(-c2cc(C(F)F)no2)c(Oc2ccccn2)c1 [Example 1-25]	100%		very good herbicidal activity	100%	90%	100%	100%	very good herbicidal activity	90%		90%	90%				90%	100%	100%			Pre-emergence action against Setaria viridis (SETVI) (Setaria viridis (SETVI); dosage 320 g/ha): 100%; Pre-emergence action against Amaranthus retroflexus (AMARE) ([7]; dosage 320 g/ha): 100%
CCc1ccc(Oc2cccc(CC)c2-c2cc(C(F)F)no2)nc1 [Example 1-60]	100%	100%	very good herbicidal activity	100%	100%	100%		very good herbicidal activity	100%	100%	90%	100%	100%	100%	100%	100%	100%	100%	100%	100%	Post-emergence action against Amaranthus retroflexus (AMARE) ([2]; dosage 320 g/ha): 100%; Post-emergence action against Alopecurus myosuroides (ALOMY) ([17]; 320 g/ha): 100%; Post-emergence action against Bassia scoparia (KCHSC) (Bassia scoparia (KCHSC)): 100%; Post-emergence action against Poa annua (POAAN) (Poa annua (POAAN) [11]; 320 g/ha): 90%
FC(F)(F)c1ccc(-c2ccccc2Oc2ccc(Cl)cn2)nc1 [Example 1-67]	100%	100%	very good herbicidal activity	100%	100%	100%		very good herbicidal activity		100%	100%	100%	100%	100%	100%	100%	100%	90%	90%	100%	Post-emergence action against Bassia scoparia (KCHSC) (Bassia scoparia (KCHSC)): 90%; Post-emergence action against Poa annua (POAAN) (Poa annua (POAAN) [11]; 320 g/ha): 100%; Post-emergence action against Abutilon theophrasti (ABUTH) ([12]; 320 g/ha): 90%
